Data from article PMC3552057 (Biochemistry, 2013).

Molecular target: T1, HpxO (Klebsiella pneumoniae, UniProt A6T923)
T1 sequence (A6T923 1-384): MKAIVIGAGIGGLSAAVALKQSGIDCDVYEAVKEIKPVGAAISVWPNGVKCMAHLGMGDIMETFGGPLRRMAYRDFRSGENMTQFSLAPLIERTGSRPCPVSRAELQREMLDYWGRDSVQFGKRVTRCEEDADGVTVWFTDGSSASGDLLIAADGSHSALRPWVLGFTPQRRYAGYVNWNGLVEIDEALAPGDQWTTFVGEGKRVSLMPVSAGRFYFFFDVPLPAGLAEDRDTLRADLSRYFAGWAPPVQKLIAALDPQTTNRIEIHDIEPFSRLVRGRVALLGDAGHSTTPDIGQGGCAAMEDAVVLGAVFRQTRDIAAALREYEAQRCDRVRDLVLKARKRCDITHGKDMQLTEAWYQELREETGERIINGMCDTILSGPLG
Test: X-ray crystal structure, […] Å
Format: binding
Details: SeMet HpxO without uric acid; FAD in the in conformation

Structure (SMILES): Cc1cc2nc3c(=O)[nH]c(=O)nc-3n(C[C@H](O)[C@H](O)[C@H](O)COP(=O)(O)OP(=O)(O)OC[C@H]3O[C@@H](n4cnc5c(N)ncnc54)[C@H](O)[C@@H]3O)c2cc1C [FAD]
- X-ray crystal structure, 2.2 Å: One FAD molecule binds to the HpxO monomer in an extended conformation
